Measurements reported in ChEMBL document CHEMBL4311992, “Discovery of 3-(((9H-purin-6-yl)amino)methyl)-4,6-dimethylpyridin-2(1H)-one derivatives as novel tubulin polymerization inhibitors for treatment of cancer” (Eur J Med Chem, 2019).

Key:
[1] = target: LIM domain kinase 2 (Homo sapiens) (UniProt P53671); experiment: Inhibition of recombinant human LIMK2 assessed as residual activity at 10 uM by radiometric method
[2] = target: Tyrosine-protein kinase BTK (Homo sapiens) (UniProt Q06187); experiment: Inhibition of full-length recombinant human BTK assessed as residual activity at 10 uM using KVEKIGEGTYGVVYK as substrate measured after 40 mins in presence of [gamma33P]ATP by scintillation counting method
[3] = target: CDK9/cyclin T1 (Homo sapiens) (UniProt O60563+P50750); experiment: Inhibition of recombinant full length human CDK9/cyclinT1 assessed as residual activity at 10 uM using KTFCGTPEYLAPEVRREPRILSEEEQEMFRDFDYIADWC as substrate measured after 40 mins in presence of [gamma33P]ATP by scintillation counting method; assay type: protein-complex assay
[4] = target: Serine/threonine-protein kinase WNK4 (Homo sapiens) (UniProt Q96J92); experiment: Inhibition of human WNK4 using myelin basic protein as substrate measured after 120 mins in presence of [gamma33P]ATP by scintillation counting method; design: scale not given: the % may be the effect or the level left
[5] = target: Rhodopsin kinase GRK7 (Homo sapiens) (UniProt Q8WTQ7); experiment: Inhibition of recombinant full-length human GRK7 assessed as residual activity at 10 uM using casein as substrate measured after 40 mins in presence of [gamma33P]ATP by scintillation counting method
[6] = target: Mitogen-activated protein kinase kinase kinase kinase 3 (Homo sapiens) (UniProt Q8IVH8); experiment: Inhibition of recombinant human MAP4K3 (1 to 291 residues) assessed as residual activity at 10 uM using RLGRDKYKTLRQIRQ as substrate measured after 40 mins in presence of [gamma33P]ATP by scintillation counting method
[7] = target: Testis-specific serine/threonine-protein kinase 3 (Homo sapiens) (UniProt Q96PN8); experiment: Inhibition of recombinant full-length human TSSK3 assessed as residual activity at 10 uM using AMARAASAAALARRR as substrate measured after 40 mins in presence of [gamma33P]ATP by scintillation counting method
[8] = target: Phosphatidylinositol 4-phosphate 3-kinase C2 domain-containing subunit alpha (Homo sapiens) (UniProt O00443); experiment: Inhibition of recombinant human PI3KC2alpha (299 to end residues) assessed as residual activity at 10 uM using phosphatidylinositol as substrate measured after 40 mins by HTRF assay
[9] = target: MAP/microtubule affinity-regulating kinase 4 (Homo sapiens) (UniProt Q96L34); experiment: Inhibition of recombinant full-length human MARK4 assessed as residual activity at 10 uM using KKKVSRSGLYRSPSMPENLNRPR as substrate measured after 40 mins in presence of [gamma33P]ATP by scintillation counting method
[10] = target: Serine/threonine-protein kinase 16 (Homo sapiens) (UniProt O75716); experiment: Inhibition of human STK16 assessed as residual activity at 10 uM by radiometric method
[11] = target: Calcium/calmodulin-dependent protein kinase type 1B (Homo sapiens) (UniProt Q6P2M8); experiment: Inhibition of recombinant full-length human CaMK1beta assessed as residual activity at 10 uM using calmodulin as substrate measured after 40 mins in presence of [gamma33P]ATP by scintillation counting method
[12] = target: Maternal embryonic leucine zipper kinase (Homo sapiens) (UniProt Q14680); experiment: Inhibition of recombinant human MELK (1 to 340 residues) assessed as residual activity at 10 uM using KKLNRTLSFAEPG as substrate measured after 40 mins in presence of [gamma33P]ATP by scintillation counting method
[13] = target: Protein kinase C theta type (Homo sapiens) (UniProt Q04759); experiment: Inhibition of recombinant full-length human PKCtheta assessed as residual activity at 10 uM using histone H1as substrate measured after 40 mins in presence of [gamma33P]ATP by scintillation counting method
[14] = target: Tyrosine-protein kinase Fer (Homo sapiens) (UniProt P16591); experiment: Inhibition of recombinant human FER (541 to end residues) assessed as residual activity at 10 uM using KKKSPGEYVNIEFG as substrate measured after 40 mins in presence of [gamma33P]ATP by scintillation counting method
[15] = target: Protein kinase C epsilon type (Homo sapiens) (UniProt Q02156); experiment: Inhibition of recombinant human PKCepsilon (2 to end residues) assessed as residual activity at 10 uM using ERMRPRKRQGSVRRRV as substrate measured after 40 mins in presence of [gamma33P]ATP by scintillation counting method
[16] = Toxicity in nude BALB/c mouse assessed as change in cholesterol level at 40 to 80 mg/kg, po once daily for 4 weeks measured post-last dose; assay type: organism-based; conditions: in vivo, 672 h
[17] = test system: Epidermal growth factor receptor (Homo sapiens), P00533 [T790M]; experiment: Inhibition of recombinant human EGFR T790M mutant (696 to end residues) assessed as residual activity at 10 uM using GGMEDIYFEFMGGKKK as substrate measured after 40 mins in presence of [gamma33P]ATP by scintillation counting method
[18] = target: Proto-oncogene tyrosine-protein kinase Src (Homo sapiens) (UniProt P12931); experiment: Inhibition of human Src (1 to 530 residues) using GGEEEEYFELVKKKK as substrate measured after 40 mins in presence of [gamma33P]ATP by scintillation counting method; design: scale not given: the % may be the effect or the level left
[19] = target: Fibroblast growth factor receptor 1 (Homo sapiens) (UniProt P11362); experiment: Inhibition of recombinant human FGFR1 (456 to 765 residues) assessed as residual activity at 10 uM using KKKSPGEYVNIEFG as substrate measured after 40 mins in presence of [gamma33P]ATP by scintillation counting method
[20] = target: Serine/threonine-protein kinase 17B (Homo sapiens) (UniProt O94768); experiment: Inhibition of recombinant full-length human DRAK2 assessed as residual activity at 10 uM using KKRPQRRYSNVF as substrate measured after 120 mins in presence of [gamma33P]ATP by scintillation counting method
[21] = Toxicity in nude BALB/c mouse assessed as change in uric acid level at 40 to 80 mg/kg, po once daily for 4 weeks measured post-last dose; assay type: organism-based; conditions: in vivo, 672 h
[22] = test system: Tyrosine-protein kinase Blk (Homo sapiens), P51451 [UNDEFINED MUTATION]; experiment: Inhibition of full-length recombinant human BLK M287V mutant assessed as residual activity at 10 uM using poly(Glu, Tyr) 4:1 as substrate measured after 40 mins in presence of [gamma33P]ATP by scintillation counting method
[23] = target: Serine/threonine-protein kinase PAK 6 (Homo sapiens) (UniProt Q9NQU5); experiment: Inhibition of recombinant human PAK6 (382 to end residues) assessed as residual activity at 10 uM using RRRLSFAEPG as substrate measured after 40 mins in presence of [gamma33P]ATP by scintillation counting method
[24] = target: Mitogen-activated protein kinase kinase kinase kinase 4 (Homo sapiens) (UniProt O95819); experiment: Inhibition of recombinant human MAP4K4 (1 to 328 residues) assessed as residual activity at 10 uM using RLGRDKYKTLRQIRQ as substrate measured after 40 mins in presence of [gamma33P]ATP by scintillation counting method

Chain of Testis-specific serine/threonine-protein kinase 3 (Homo sapiens) (Q96PN8 whole entry, the tested form may be a part): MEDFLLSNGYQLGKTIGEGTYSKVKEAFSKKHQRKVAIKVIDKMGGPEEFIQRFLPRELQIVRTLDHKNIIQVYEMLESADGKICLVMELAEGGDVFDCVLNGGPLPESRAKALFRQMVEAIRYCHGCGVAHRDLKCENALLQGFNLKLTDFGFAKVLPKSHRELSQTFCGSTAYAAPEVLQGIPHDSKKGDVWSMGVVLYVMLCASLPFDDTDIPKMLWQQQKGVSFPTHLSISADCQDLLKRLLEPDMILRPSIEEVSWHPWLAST
Chain of Tyrosine-protein kinase BTK (Homo sapiens) (Q06187 whole entry): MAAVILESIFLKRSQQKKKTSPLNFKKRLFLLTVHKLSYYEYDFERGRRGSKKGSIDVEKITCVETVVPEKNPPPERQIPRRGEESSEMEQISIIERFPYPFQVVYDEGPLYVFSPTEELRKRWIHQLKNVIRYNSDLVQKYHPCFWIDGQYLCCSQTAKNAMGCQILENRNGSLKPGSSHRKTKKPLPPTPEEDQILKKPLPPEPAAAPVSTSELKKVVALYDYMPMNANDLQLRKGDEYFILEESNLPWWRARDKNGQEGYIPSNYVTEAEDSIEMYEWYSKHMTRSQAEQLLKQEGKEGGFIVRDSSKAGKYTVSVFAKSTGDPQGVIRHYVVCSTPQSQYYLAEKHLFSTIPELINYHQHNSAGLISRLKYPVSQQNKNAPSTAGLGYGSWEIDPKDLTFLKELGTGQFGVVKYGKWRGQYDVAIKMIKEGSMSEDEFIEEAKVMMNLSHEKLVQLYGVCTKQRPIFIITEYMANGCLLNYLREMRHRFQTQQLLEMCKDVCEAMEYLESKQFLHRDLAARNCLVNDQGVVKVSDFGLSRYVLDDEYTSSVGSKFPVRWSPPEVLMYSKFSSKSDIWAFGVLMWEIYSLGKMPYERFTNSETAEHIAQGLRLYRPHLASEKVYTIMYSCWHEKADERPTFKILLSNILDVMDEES
Chain of Calcium/calmodulin-dependent protein kinase type 1B (Homo sapiens) (Q6P2M8 whole entry, the tested form may be a part): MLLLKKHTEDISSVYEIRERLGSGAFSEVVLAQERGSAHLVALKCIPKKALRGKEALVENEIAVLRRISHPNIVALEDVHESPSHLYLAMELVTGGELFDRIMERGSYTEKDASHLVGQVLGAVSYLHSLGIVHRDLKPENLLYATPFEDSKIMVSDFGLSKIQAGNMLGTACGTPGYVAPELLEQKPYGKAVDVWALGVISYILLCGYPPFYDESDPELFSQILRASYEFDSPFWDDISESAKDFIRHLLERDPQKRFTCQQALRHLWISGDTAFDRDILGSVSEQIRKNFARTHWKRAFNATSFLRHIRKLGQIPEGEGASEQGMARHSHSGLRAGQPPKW
Chain of Serine/threonine-protein kinase WNK4 (Homo sapiens) (Q96J92 whole entry): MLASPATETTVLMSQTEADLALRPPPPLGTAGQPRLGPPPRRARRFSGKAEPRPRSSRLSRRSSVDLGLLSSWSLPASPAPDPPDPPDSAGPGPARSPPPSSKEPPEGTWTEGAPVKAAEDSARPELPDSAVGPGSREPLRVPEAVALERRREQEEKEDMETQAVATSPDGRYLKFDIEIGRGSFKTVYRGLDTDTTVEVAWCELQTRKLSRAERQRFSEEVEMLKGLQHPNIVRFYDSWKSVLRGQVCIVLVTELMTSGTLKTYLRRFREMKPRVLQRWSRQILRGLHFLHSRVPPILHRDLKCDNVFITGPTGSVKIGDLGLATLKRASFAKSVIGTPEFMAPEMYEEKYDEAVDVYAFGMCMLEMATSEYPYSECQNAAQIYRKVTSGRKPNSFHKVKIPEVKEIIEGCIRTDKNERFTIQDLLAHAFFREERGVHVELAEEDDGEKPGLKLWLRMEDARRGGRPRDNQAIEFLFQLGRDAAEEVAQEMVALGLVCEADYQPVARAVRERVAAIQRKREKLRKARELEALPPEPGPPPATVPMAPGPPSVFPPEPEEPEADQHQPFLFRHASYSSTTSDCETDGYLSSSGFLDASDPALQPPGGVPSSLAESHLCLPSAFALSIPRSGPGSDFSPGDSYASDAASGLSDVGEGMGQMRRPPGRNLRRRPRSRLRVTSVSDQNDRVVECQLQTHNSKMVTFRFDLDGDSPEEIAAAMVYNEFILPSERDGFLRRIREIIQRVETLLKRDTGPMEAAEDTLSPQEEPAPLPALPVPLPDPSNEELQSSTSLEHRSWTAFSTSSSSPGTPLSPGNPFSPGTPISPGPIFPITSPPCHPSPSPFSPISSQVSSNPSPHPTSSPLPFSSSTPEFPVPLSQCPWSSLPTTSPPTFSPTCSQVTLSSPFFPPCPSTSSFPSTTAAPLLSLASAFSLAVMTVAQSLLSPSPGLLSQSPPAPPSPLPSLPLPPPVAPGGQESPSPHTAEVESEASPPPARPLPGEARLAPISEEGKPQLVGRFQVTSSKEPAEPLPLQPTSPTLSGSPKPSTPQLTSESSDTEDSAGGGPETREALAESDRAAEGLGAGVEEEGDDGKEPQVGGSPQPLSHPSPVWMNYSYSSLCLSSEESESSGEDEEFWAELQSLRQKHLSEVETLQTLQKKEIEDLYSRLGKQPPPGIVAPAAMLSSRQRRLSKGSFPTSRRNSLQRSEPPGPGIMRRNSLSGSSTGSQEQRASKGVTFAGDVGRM
Chain of Tyrosine-protein kinase Fer (Homo sapiens) (P16591 whole entry, looked up): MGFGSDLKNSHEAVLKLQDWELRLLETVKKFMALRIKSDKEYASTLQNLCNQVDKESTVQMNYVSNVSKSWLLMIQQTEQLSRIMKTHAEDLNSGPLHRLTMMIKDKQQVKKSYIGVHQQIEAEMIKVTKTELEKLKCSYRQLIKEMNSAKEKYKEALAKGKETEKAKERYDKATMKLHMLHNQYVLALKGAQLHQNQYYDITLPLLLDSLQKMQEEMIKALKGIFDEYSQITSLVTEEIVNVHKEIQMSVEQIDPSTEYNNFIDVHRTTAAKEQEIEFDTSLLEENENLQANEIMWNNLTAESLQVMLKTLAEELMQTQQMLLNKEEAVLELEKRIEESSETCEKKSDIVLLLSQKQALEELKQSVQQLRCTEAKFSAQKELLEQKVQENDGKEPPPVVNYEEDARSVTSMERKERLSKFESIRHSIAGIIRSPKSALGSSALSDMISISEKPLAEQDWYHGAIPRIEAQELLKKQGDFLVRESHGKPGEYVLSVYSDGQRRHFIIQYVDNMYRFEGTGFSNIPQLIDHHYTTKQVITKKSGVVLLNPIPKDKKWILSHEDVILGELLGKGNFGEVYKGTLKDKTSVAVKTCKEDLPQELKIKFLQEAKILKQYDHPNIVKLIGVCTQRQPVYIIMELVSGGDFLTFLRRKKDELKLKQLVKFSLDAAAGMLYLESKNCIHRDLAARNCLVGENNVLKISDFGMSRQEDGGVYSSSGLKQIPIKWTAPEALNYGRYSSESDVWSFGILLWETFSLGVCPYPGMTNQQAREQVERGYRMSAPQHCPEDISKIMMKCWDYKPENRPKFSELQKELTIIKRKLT
Chain of Protein kinase C theta type (Homo sapiens) (Q04759 whole entry, looked up): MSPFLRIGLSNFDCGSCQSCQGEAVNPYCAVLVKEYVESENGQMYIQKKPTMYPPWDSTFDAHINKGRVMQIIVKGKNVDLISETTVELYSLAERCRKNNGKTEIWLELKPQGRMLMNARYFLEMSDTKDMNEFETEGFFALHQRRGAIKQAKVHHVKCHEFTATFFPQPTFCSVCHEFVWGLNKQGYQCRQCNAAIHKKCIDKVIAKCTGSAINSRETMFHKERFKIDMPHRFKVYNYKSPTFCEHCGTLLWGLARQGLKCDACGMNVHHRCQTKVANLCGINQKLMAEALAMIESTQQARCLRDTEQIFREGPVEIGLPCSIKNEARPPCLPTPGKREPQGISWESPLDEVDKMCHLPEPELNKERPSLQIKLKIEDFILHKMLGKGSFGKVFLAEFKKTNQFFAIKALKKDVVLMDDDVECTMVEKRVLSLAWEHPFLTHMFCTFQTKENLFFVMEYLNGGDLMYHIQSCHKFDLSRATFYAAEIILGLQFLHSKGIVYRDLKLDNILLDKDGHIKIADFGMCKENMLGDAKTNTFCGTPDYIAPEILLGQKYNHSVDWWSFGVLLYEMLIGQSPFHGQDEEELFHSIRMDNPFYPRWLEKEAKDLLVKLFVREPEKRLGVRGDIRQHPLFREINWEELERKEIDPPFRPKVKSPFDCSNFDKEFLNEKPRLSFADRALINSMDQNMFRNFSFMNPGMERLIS
Chain of Fibroblast growth factor receptor 1 (Homo sapiens) (P11362 22-822 limits assumed): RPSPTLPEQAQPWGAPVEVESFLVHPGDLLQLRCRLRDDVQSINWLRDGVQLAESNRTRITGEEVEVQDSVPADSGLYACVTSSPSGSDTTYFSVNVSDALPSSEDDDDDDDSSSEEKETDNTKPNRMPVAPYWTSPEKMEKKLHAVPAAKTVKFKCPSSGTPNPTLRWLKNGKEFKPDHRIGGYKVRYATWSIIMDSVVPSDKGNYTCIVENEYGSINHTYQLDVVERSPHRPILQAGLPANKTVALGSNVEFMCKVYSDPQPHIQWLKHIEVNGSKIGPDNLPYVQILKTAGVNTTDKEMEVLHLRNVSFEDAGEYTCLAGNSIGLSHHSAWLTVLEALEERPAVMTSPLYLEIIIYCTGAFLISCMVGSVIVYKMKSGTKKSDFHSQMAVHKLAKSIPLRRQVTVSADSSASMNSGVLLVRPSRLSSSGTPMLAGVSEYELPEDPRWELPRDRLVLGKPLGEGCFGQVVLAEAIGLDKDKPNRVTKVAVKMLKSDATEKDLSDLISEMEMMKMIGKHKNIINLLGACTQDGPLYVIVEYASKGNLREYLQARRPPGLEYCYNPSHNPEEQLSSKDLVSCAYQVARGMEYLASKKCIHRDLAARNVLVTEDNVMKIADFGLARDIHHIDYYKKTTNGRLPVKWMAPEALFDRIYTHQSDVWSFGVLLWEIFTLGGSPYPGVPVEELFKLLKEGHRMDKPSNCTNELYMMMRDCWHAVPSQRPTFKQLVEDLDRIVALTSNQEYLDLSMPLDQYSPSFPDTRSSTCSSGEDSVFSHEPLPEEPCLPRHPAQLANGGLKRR

## Cc1cc(C)c(CNc2nc(Cl)nc3c2ncn3C2CCCC2)c(=O)[nH]1
[1]
  Activity: 106%
[2]
  Activity: 85%
[3]
  Activity: 106%
[4]
  Activity: 98.5%
[5]
  Activity: 102%
[6]
  Activity: 104%
[7]
  Activity: 124%
[8]
  Activity: 112%
[9]
  Activity: 123%
[10]
  Activity: 102%
[11]
  Activity: 107%
[12]
  Activity: 114%
[13]
  Activity: 103%
[14]
  Activity: 108%
[15]
  Activity: 95%
[16]
  Activity: Non-Toxic
[17]
  Activity: 102%
[18]
  Activity: 124%
[19]
  Activity: 108%
[20]
  Activity: 101%
[21]
  Activity: Non-Toxic
[22]
  Activity: 115%
[23]
  Activity: 101%
[24]
  Activity: 114%
